{
  "source": "PubChem BioAssay (NCI)",
  "note": "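The compound was tested at five concentrations on cells cultured in 96-well plates, with a 48-hour exposure period. GI50 is the concentration that inhibits growth by half. TGI denotes the concentration required for complete inhibition of growth.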",
  "data": [
    {"system": "786-0 renal", "experiment": "NCI tumour cell line growth inhibition, 48 h", "units": {"TGI": "µM", "GI50": "µM"}, "values": [
      {"molecule": "COc1cc(C2C3=C(COC3=O)Oc3cc4c(cc32)OCO4)cc(OC)c1OC(C)=O", "note": "(centres undefined)", "TGI": "> 100"},
      {"molecule": "Nc1ccc(-c2nc3ccccc3[nH]2)c2ccccc12", "GI50": 4.02, "TGI": "> 41.4"},
      {"molecule": "COc1ccc2c(c1OC)C(=O)OC2C1c2c(c([N+](=O)[O-])c3c(c2OC)OCO3)CCN1C", "note": "(centres undefined)", "GI50": "> 100", "TGI": "> 100"},
      {"molecule": "COC1O[C@@H]2C[C@H]3C(C)(C)CCC[C@]3(C)C3=CCCC1[C@@]32C", "note": "(some centres undefined)", "GI50": "> 100", "TGI": "> 100"}
    ]},
    {"system": "A498 renal", "experiment": "NCI tumour cell line growth inhibition, 48 h", "units": {"TGI": "µM", "GI50": "µM"}, "values": [
      {"molecule": "COc1cc(C2C3=C(COC3=O)Oc3cc4c(cc32)OCO4)cc(OC)c1OC(C)=O", "note": "(centres undefined)", "TGI": 0.618},
      {"molecule": "Nc1ccc(-c2nc3ccccc3[nH]2)c2ccccc12", "GI50": 1.07, "TGI": 15},
      {"molecule": "COc1ccc2c(c1OC)C(=O)OC2C1c2c(c([N+](=O)[O-])c3c(c2OC)OCO3)CCN1C", "note": "(centres undefined)", "GI50": "> 100", "TGI": "> 100"},
      {"molecule": "OC(c1cc2cc(Cl)c(Cl)cc2c2cc(C(F)(F)F)ccc12)C1CCCCN1", "note": "(centres undefined)", "GI50": 1.36, "TGI": 2.69},
      {"molecule": "COC1O[C@@H]2C[C@H]3C(C)(C)CCC[C@]3(C)C3=CCCC1[C@@]32C", "note": "(some centres undefined)", "GI50": "> 100", "TGI": "> 100"}
    ]},
    {"system": "A549 NSCLC", "experiment": "NCI tumour cell line growth inhibition, 48 h", "units": {"TGI": "µM", "GI50": "µM"}, "values": [
      {"molecule": "COc1cc(C2C3=C(COC3=O)Oc3cc4c(cc32)OCO4)cc(OC)c1OC(C)=O", "note": "(centres undefined)", "TGI": "> 100"},
      {"molecule": "Nc1ccc(-c2nc3ccccc3[nH]2)c2ccccc12", "GI50": 6.6, "TGI": 50.3},
      {"molecule": "COc1ccc2c(c1OC)C(=O)OC2C1c2c(c([N+](=O)[O-])c3c(c2OC)OCO3)CCN1C", "note": "(centres undefined)", "GI50": "> 100", "TGI": "> 100"},
      {"molecule": "OC(c1cc2cc(Cl)c(Cl)cc2c2cc(C(F)(F)F)ccc12)C1CCCCN1", "note": "(centres undefined)", "GI50": 1.68, "TGI": 3.18},
      {"molecule": "COC1O[C@@H]2C[C@H]3C(C)(C)CCC[C@]3(C)C3=CCCC1[C@@]32C", "note": "(some centres undefined)", "GI50": "> 100", "TGI": "> 100"}
    ]},
    {"system": "ACHN renal", "experiment": "NCI tumour cell line growth inhibition, 48 h", "units": {"TGI": "µM", "GI50": "µM"}, "values": [
      {"molecule": "COc1cc(C2C3=C(COC3=O)Oc3cc4c(cc32)OCO4)cc(OC)c1OC(C)=O", "note": "(centres undefined)", "TGI": "> 57.2"},
      {"molecule": "Nc1ccc(-c2nc3ccccc3[nH]2)c2ccccc12", "GI50": 8.41, "TGI": 41.3},
      {"molecule": "COc1ccc2c(c1OC)C(=O)OC2C1c2c(c([N+](=O)[O-])c3c(c2OC)OCO3)CCN1C", "note": "(centres undefined)", "GI50": "> 100", "TGI": "> 100"},
      {"molecule": "COC1O[C@@H]2C[C@H]3C(C)(C)CCC[C@]3(C)C3=CCCC1[C@@]32C", "note": "(some centres undefined)", "GI50": "> 100", "TGI": "> 100"}
    ]},
    {"system": "BT-549 breast", "experiment": "NCI tumour cell line growth inhibition, 48 h", "units": {"TGI": "µM", "GI50": "µM"}, "values": [
      {"molecule": "COc1cc(C2C3=C(COC3=O)Oc3cc4c(cc32)OCO4)cc(OC)c1OC(C)=O", "note": "(centres undefined)", "TGI": 5.74},
      {"molecule": "Nc1ccc(-c2nc3ccccc3[nH]2)c2ccccc12", "GI50": 2.39, "TGI": 22.5},
      {"molecule": "COc1ccc2c(c1OC)C(=O)OC2C1c2c(c([N+](=O)[O-])c3c(c2OC)OCO3)CCN1C", "note": "(centres undefined)", "GI50": "> 100", "TGI": "> 100"},
      {"molecule": "COC1O[C@@H]2C[C@H]3C(C)(C)CCC[C@]3(C)C3=CCCC1[C@@]32C", "note": "(some centres undefined)", "GI50": "> 100", "TGI": "> 100"}
    ]},
    {"system": "CAKI-1 renal", "experiment": "NCI tumour cell line growth inhibition, 48 h", "units": {"TGI": "µM", "GI50": "µM"}, "values": [
      {"molecule": "COc1cc(C2C3=C(COC3=O)Oc3cc4c(cc32)OCO4)cc(OC)c1OC(C)=O", "note": "(centres undefined)", "TGI": "> 100"},
      {"molecule": "Nc1ccc(-c2nc3ccccc3[nH]2)c2ccccc12", "GI50": 2.23, "TGI": "> 53.7"},
      {"molecule": "COc1ccc2c(c1OC)C(=O)OC2C1c2c(c([N+](=O)[O-])c3c(c2OC)OCO3)CCN1C", "note": "(centres undefined)", "GI50": "> 100", "TGI": "> 100"},
      {"molecule": "OC(c1cc2cc(Cl)c(Cl)cc2c2cc(C(F)(F)F)ccc12)C1CCCCN1", "note": "(centres undefined)", "GI50": 2, "TGI": 4.32}
    ]},
    {"system": "CCRF-CEM leukemia", "experiment": "NCI tumour cell line growth inhibition, 48 h", "units": {"TGI": "µM", "GI50": "µM"}, "values": [
      {"molecule": "COc1cc(C2C3=C(COC3=O)Oc3cc4c(cc32)OCO4)cc(OC)c1OC(C)=O", "note": "(centres undefined)", "TGI": "> 100"},
      {"molecule": "Nc1ccc(-c2nc3ccccc3[nH]2)c2ccccc12", "GI50": 2.03, "TGI": "> 43.2"},
      {"molecule": "COC1O[C@@H]2C[C@H]3C(C)(C)CCC[C@]3(C)C3=CCCC1[C@@]32C", "note": "(some centres undefined)", "GI50": "> 100", "TGI": "> 100"}
    ]},
    {"system": "COLO 205 colon", "experiment": "NCI tumour cell line growth inhibition, 48 h", "units": {"TGI": "µM", "GI50": "µM"}, "values": [
      {"molecule": "COc1cc(C2C3=C(COC3=O)Oc3cc4c(cc32)OCO4)cc(OC)c1OC(C)=O", "note": "(centres undefined)", "TGI": 0.336},
      {"molecule": "Nc1ccc(-c2nc3ccccc3[nH]2)c2ccccc12", "GI50": 3.41, "TGI": 24.6},
      {"molecule": "COc1ccc2c(c1OC)C(=O)OC2C1c2c(c([N+](=O)[O-])c3c(c2OC)OCO3)CCN1C", "note": "(centres undefined)", "GI50": 66.6, "TGI": "> 100"},
      {"molecule": "COC1O[C@@H]2C[C@H]3C(C)(C)CCC[C@]3(C)C3=CCCC1[C@@]32C", "note": "(some centres undefined)", "GI50": "> 100", "TGI": "> 100"}
    ]},
    {"system": "DU-145 prostate", "experiment": "NCI tumour cell line growth inhibition, 48 h", "units": {"TGI": "µM", "GI50": "µM"}, "values": [
      {"molecule": "COc1cc(C2C3=C(COC3=O)Oc3cc4c(cc32)OCO4)cc(OC)c1OC(C)=O", "note": "(centres undefined)", "TGI": "> 100"},
      {"molecule": "Nc1ccc(-c2nc3ccccc3[nH]2)c2ccccc12", "GI50": 2.81, "TGI": "> 22.3"},
      {"molecule": "COc1ccc2c(c1OC)C(=O)OC2C1c2c(c([N+](=O)[O-])c3c(c2OC)OCO3)CCN1C", "note": "(centres undefined)", "GI50": "> 100", "TGI": "> 100"},
      {"molecule": "OC(c1cc2cc(Cl)c(Cl)cc2c2cc(C(F)(F)F)ccc12)C1CCCCN1", "note": "(centres undefined)", "GI50": 1.94, "TGI": 3.36},
      {"molecule": "COC1O[C@@H]2C[C@H]3C(C)(C)CCC[C@]3(C)C3=CCCC1[C@@]32C", "note": "(some centres undefined)", "GI50": "> 100", "TGI": "> 100"}
    ]},
    {"system": "EKVX NSCLC", "experiment": "NCI tumour cell line growth inhibition, 48 h", "units": {"TGI": "µM", "GI50": "µM"}, "values": [
      {"molecule": "COc1cc(C2C3=C(COC3=O)Oc3cc4c(cc32)OCO4)cc(OC)c1OC(C)=O", "note": "(centres undefined)", "TGI": "> 100"},
      {"molecule": "Nc1ccc(-c2nc3ccccc3[nH]2)c2ccccc12", "GI50": 14.5, "TGI": "> 100"},
      {"molecule": "COc1ccc2c(c1OC)C(=O)OC2C1c2c(c([N+](=O)[O-])c3c(c2OC)OCO3)CCN1C", "note": "(centres undefined)", "GI50": "> 100", "TGI": "> 100"},
      {"molecule": "CC(=O)c1c(-c2cccc3ccccc23)c(C#N)c(=S)n(C2OC(CO)C(O)C(O)C2O)c1-c1ccccc1", "note": "(centres undefined)", "TGI": "> 100"},
      {"molecule": "COC1O[C@@H]2C[C@H]3C(C)(C)CCC[C@]3(C)C3=CCCC1[C@@]32C", "note": "(some centres undefined)", "GI50": "> 100", "TGI": "> 100"}
    ]},
    {"system": "HCC-2998 colon", "experiment": "NCI tumour cell line growth inhibition, 48 h", "units": {"TGI": "µM", "GI50": "µM"}, "values": [
      {"molecule": "COc1cc(C2C3=C(COC3=O)Oc3cc4c(cc32)OCO4)cc(OC)c1OC(C)=O", "note": "(centres undefined)", "TGI": "> 100"},
      {"molecule": "Nc1ccc(-c2nc3ccccc3[nH]2)c2ccccc12", "GI50": 2.46, "TGI": 10.5},
      {"molecule": "COc1ccc2c(c1OC)C(=O)OC2C1c2c(c([N+](=O)[O-])c3c(c2OC)OCO3)CCN1C", "note": "(centres undefined)", "GI50": 27.8, "TGI": "> 100"}
    ]},
    {"system": "HCT-116 colon", "experiment": "NCI tumour cell line growth inhibition, 48 h", "units": {"GI50": "µM", "TGI": "µM"}, "values": [
      {"molecule": "Nc1ccc(-c2nc3ccccc3[nH]2)c2ccccc12", "GI50": 3.3, "TGI": 12.6},
      {"molecule": "COc1ccc2c(c1OC)C(=O)OC2C1c2c(c([N+](=O)[O-])c3c(c2OC)OCO3)CCN1C", "note": "(centres undefined)", "GI50": "> 100", "TGI": "> 100"},
      {"molecule": "COC1O[C@@H]2C[C@H]3C(C)(C)CCC[C@]3(C)C3=CCCC1[C@@]32C", "note": "(some centres undefined)", "GI50": "> 100", "TGI": "> 100"}
    ]},
    {"system": "HCT-15 colon", "experiment": "NCI tumour cell line growth inhibition, 48 h", "units": {"TGI": "µM", "GI50": "µM"}, "values": [
      {"molecule": "COc1cc(C2C3=C(COC3=O)Oc3cc4c(cc32)OCO4)cc(OC)c1OC(C)=O", "note": "(centres undefined)", "TGI": "> 100"},
      {"molecule": "Nc1ccc(-c2nc3ccccc3[nH]2)c2ccccc12", "GI50": 6.35, "TGI": 20.8},
      {"molecule": "COc1ccc2c(c1OC)C(=O)OC2C1c2c(c([N+](=O)[O-])c3c(c2OC)OCO3)CCN1C", "note": "(centres undefined)", "GI50": "> 100", "TGI": "> 100"},
      {"molecule": "COC1O[C@@H]2C[C@H]3C(C)(C)CCC[C@]3(C)C3=CCCC1[C@@]32C", "note": "(some centres undefined)", "GI50": "> 100", "TGI": "> 100"}
    ]},
    {"system": "HL-60(TB) leukemia", "experiment": "NCI tumour cell line growth inhibition, 48 h", "units": {"TGI": "µM"}, "values": [
      {"molecule": "COc1cc(C2C3=C(COC3=O)Oc3cc4c(cc32)OCO4)cc(OC)c1OC(C)=O", "note": "(centres undefined)", "TGI": 0.615}
    ]}
  ]
}
